Measurements: ChEMBL document CHEMBL6087420, “Synthesis and pharmacodynamic evaluation of 2-aminoindole derivatives against influenza A virus in vitro/vivo” (Eur J Med Chem, 2025)
Calls of active or inactive are those of the source. The rule behind the calls is not given here.

Key:
[1] = Toxicity in healthy BALB/c mouse assessed as pathological change in spleen at 25 to 100 mg/kg administered through gavage for 6 days; format: organism-based; conditions: in vivo, po, 144 h, dose 25-100 mg/kg, time 6 day
[2] = test system: Influenza A virus; assay: Inhibition of influenza A virus infection induced apoptosis in MDCK cells assessed as viable cells at 100 uM incubated for 36 hrs by AnnexinV-FITC/PI staining based flow cytometry (reference value: 97.6%); format: functional
[3] = test system: Influenza A virus; assay: Antiviral activity against influenza A virus H1N1 infected in MDCK cells assessed as decrease in virus infection-induced cytopathic effect; format: functional, organism-based
[4] = test system: Influenza A virus; assay: Antiviral activity against influenza A virus infected in human A549 cells assessed as inhibition of IFN-beta expression by qRT-PCR analysis; format: functional, organism-based
[5] = test system: Influenza A virus; assay: Antiviral activity against influenza A virus H1NI (A/Weiss/43) virus infected in dog MDCK cells assessed as viral inhibition treated after 4 hrs of viral infection measured at 72 hrs incubation by MTT assay; format: functional
[6] = test system: Influenza A virus; assay: In vivo antiviral activity against influenza A virus infected in BALB/c mouse assessed as reduction in TLR-3 mRNA level in lung at 25 to 100 mg/kg measured after 6 dpi; format: functional, organism-based; conditions: dose 25-100 mg/kg
[7] = test system: Influenza A virus; assay: Antiviral activity against influenza A virus infected in human A549 cells assessed as inhibition of IL-6 expression by qRT-PCR analysis; format: functional, organism-based
[8] = Selectivity index, ratio of CC50 for dog MDCK cells to EC50 for antiviral activity against Influenza A virus […] H3N2 (A/California/2014) infected in MDCK cells; format: toxicity, cell-based; conditions: read-out: Selectivity Index
[9] = test system: Influenza A virus; assay: In vivo antiviral activity against influenza A virus infected in BALB/c mouse assessed as reduction in ASC mRNA level in lung at 25 to 100 mg/kg measured after 6 dpi; format: functional, organism-based; conditions: dose 25-100 mg/kg
[10] = test system: Influenza A virus; assay: Antiviral activity against influenza A virus infected in human A549 cells assessed as inhibition of TNFalpha expression by qRT-PCR analysis; format: functional, organism-based
[11] = Toxicity in healthy BALB/c mouse assessed as pathological change in colon at 25 to 100 mg/kg administered through gavage for 6 days; format: organism-based; conditions: in vivo, po, 144 h, dose 25-100 mg/kg, time 6 day
[12] = Toxicity in healthy BALB/c mouse assessed as pathological change in lungs at 25 to 100 mg/kg administered through gavage for 6 days; format: organism-based; conditions: in vivo, po, 144 h, dose 25-100 mg/kg, time 6 day
[13] = test system: Influenza A virus; assay: Inhibition of influenza A virus infection induced apoptosis in MDCK cells infected with influenza virus assessed as viable cells at 25 uM incubated for 36 hrs by AnnexinV-FITC/PI staining based flow cytometry (reference value: 66.9%); format: functional
[14] = test system: Influenza A virus; assay: In vivo antiviral activity against influenza A virus infected in BALB/c mouse assessed as reduction in lung lesions at 25 to 100 mg/kg; format: functional, organism-based; conditions: dose 25-100 mg/kg
[15] = Selectivity index, ratio of CC50 for dog MDCK cells to EC50 for antiviral activity against Influenza A virus H1NI (A/Virginia/ATCC2/2009) infected in MDCK cells; format: toxicity, cell-based; conditions: read-out: Selectivity Index
[16] = test system: Influenza A virus; assay: Inhibition of influenza A virus infection induced apoptosis in MDCK cells infected with influenza virus assessed as necrotic cells at 50 uM incubated for 36 hrs by AnnexinV-FITC/PI staining based flow cytometry (reference value: 1.79%); format: functional; parameters: scale not given: the % may be the effect or the level left
[17] = test system: Influenza A virus; assay: Antiviral activity against influenza A virus H1NI (A/Weiss/43) infected in human A549 cells assessed as reduction in IAV-NP mRNA by qRT-PCR assay; format: functional, organism-based
[18] = test system: Influenza A virus; assay: Antiviral activity against influenza A virus infected in human A549 cells assessed as inhibition of MAVS expression by qRT-PCR analysis; format: functional, organism-based
[19] = test system: Influenza A virus; assay: Inhibition of influenza A virus infection induced apoptosis in MDCK cells infected with influenza virus assessed as upregulation of Bcl2 incubated for 36 hrs by Western blot analysis; format: functional, organism-based
[20] = test system: Influenza A virus; assay: In vivo antiviral activity against influenza A virus infected in BALB/c mouse assessed as reduction in IRF3 mRNA level in lung at 25 to 100 mg/kg measured after 6 dpi; format: functional, organism-based; conditions: dose 25-100 mg/kg
[21] = test system: Influenza A virus; assay: In vivo antiviral activity against influenza A virus infected in BALB/c mouse assessed as reduction in OAS1 mRNA level in lung at 25 to 100 mg/kg measured after 6 dpi; format: functional, organism-based; conditions: dose 25-100 mg/kg
[22] = test system: Influenza A virus; assay: In vivo antiviral activity against influenza A virus infected in BALB/c mouse assessed as reduction in RIG-I mRNA level in lung at 25 to 100 mg/kg measured after 6 dpi; format: functional, organism-based; conditions: dose 25-100 mg/kg
[23] = test system: Influenza A virus; assay: Inhibition of influenza A virus infection induced apoptosis in MDCK cells infected with influenza virus assessed as decrease in Bax incubated for 36 hrs by Western blot analysis; format: functional, organism-based
[24] = test system: Influenza A virus; assay: In vivo antiviral activity against influenza A virus infected in BALB/c mouse assessed as decrease in symptoms at 25 to 100 mg/kg; format: functional, organism-based; conditions: dose 25-100 mg/kg
[25] = test system: Influenza A virus; assay: Inhibition of influenza A virus infection induced apoptosis in MDCK cells assessed as early apoptotic cells at 100 uM incubated for 36 hrs by AnnexinV-FITC/PI staining based flow cytometry (reference value: 0.96%); format: functional; parameters: scale not given: the % may be the effect or the level left
[26] = test system: Influenza A virus; assay: Inhibition of influenza A virus infection induced apoptosis in MDCK cells assessed as late apoptotic cells at 100 uM incubated for 36 hrs by AnnexinV-FITC/PI staining based flow cytometry (reference value: 0.70%); format: functional; parameters: scale not given: the % may be the effect or the level left
[27] = test system: Influenza A virus; assay: Antiviral activity against influenza A virus infected in human A549 cells assessed as inhibition of IRF3 expression by qRT-PCR analysis; format: functional, organism-based
[28] = test system: Influenza A virus; assay: Antiviral activity against influenza A virus infected in human A549 cells assessed as inhibition of RIG-1 expression by qRT-PCR analysis; format: functional, organism-based
[29] = test system: Influenza A virus; assay: In vivo antiviral activity against influenza A virus infected in BALB/c mouse assessed as reduction in iNOS mRNA level in lung at 25 to 100 mg/kg measured after 6 dpi; format: functional, organism-based; conditions: dose 25-100 mg/kg
[30] = test system: Influenza A virus; assay: Antiviral activity against influenza A virus infected in human A549 cells assessed as inhibition of TLR3 expression by qRT-PCR analysis; format: functional, organism-based
[31] = Toxicity in healthy BALB/c mouse assessed as pathological change in heart at 25 to 100 mg/kg administered through gavage for 6 days; format: organism-based; conditions: in vivo, po, 144 h, dose 25-100 mg/kg, time 6 day
[32] = test system: Influenza A virus; assay: In vivo antiviral activity against influenza A virus infected in BALB/c mouse assessed as reduction in IAV-NP mRNA level in lung at 25 to 100 mg/kg measured after 6 dpi; format: functional, organism-based; conditions: dose 25-100 mg/kg
[33] = test system: Influenza A virus; assay: In vivo antiviral activity against influenza A virus infected in BALB/c mouse assessed as reduction in apoptotic cells at 25 to 100 mg/kg measured after 6 dpi by TUNEL assay; format: functional, organism-based; conditions: dose 25-100 mg/kg
[34] = test system: Influenza A virus; assay: In vivo antiviral activity against influenza A virus infected in BALB/c mouse assessed as reduction in lung index at 25 to 100 mg/kg; format: functional, organism-based; conditions: dose 25-100 mg/kg
[35] = test system: Influenza A virus; assay: In vivo antiviral activity against influenza A virus infected in BALB/c mouse assessed as reduction in IFN-gamma mRNA level in lung at 25 to 100 mg/kg measured after 6 dpi; format: functional, organism-based; conditions: dose 25-100 mg/kg
[36] = test system: Influenza A virus; assay: Inhibition of influenza A virus infection induced apoptosis in MDCK cells infected with influenza virus assessed as early apoptotic cells at 25 uM incubated for 36 hrs by AnnexinV-FITC/PI staining based flow cytometry (reference value: 18.2%); format: functional; parameters: scale not given: the % may be the effect or the level left

## COc1ccc2c(c1)c(-c1ccccc1)c(NS(C)(=O)=O)n2S(=O)(=O)c1ccc(C)cc1
[1]
  Activity: Non-toxic
[2]
  Activity: 96.7%
[3]
  Activity: Active
[4]
  Activity: Active
[5]
  inhibition (INH): 85.3%
[6]
  Activity: Active
[7]
  Activity: Active
[8]
  selectivity ratio: 36.5
[9]
  Activity: Active
[10]
  Activity: Active
[11]
  Activity: Non-toxic
[12]
  Activity: Non-toxic
[13]
  Activity: 71.9%
[14]
  Activity: Active; Compound Alleviate Red Liver-Like Degeneration Stage, With Edema And Expansion, And Dark Red Lesions And Lung Consolidation - Only Mild Edema Observed
[15]
  selectivity ratio: 51.9
[16]
  Activity: 1.25%
[17]
  Activity: Active
[18]
  Activity: Active
[19]
  Activity: Active
[20]
  Activity: Active
[21]
  Activity: Active
[22]
  Activity: Active
[23]
  Activity: Active
[24]
  Activity: Active; Alleviate Following Symptoms - Symptoms Of Severe Malaise, Respiratory Distress, Asthma, Messy Coat, Hunched Back, And Loss Of Appetite To Certain Extent
[25]
  Activity: 0.89%
[26]
  Activity: 0.83%
[27]
  Activity: Active
[28]
  Activity: Active
[29]
  Activity: Active
[30]
  Activity: Active
[31]
  Activity: Non-toxic
[32]
  Activity: Active
[33]
  Activity: Active
[34]
  Activity: Active
[35]
  Activity: Active
[36]
  Activity: 17.6%
